Measured values reported in US6485713B1, “Sunscreen compositions and methods and materials for producing the same” (The C. P. Hall Company, priority 2002, dated 2002).
“And” between values parts separate entries of the source, which are not always exact repeats. Identical values can stand only once. Like-named read-outs stand apart in the source and are kept apart here. Marks after values point to notes of the source that are not given here.

Columns and labels:
[1] = Dielectric constants of sunscreen ingredients at 25° C.; type: physicochemical; details: for Dielectric Constant at 25° C. (ε): neat ingredient; for Dielectric Constant at 25° C. (ε), estimated value: marked estimated
From the text: A step of determining the polarity of a mixture or an emulsion can be performed in various ways. For example, determining a polarity can include measuring a property that is a function of polarity, such as a dielectric constant. Measurement of a dielectric constant of a liquid can be performed by various sensors, such as immersion probes, flow-through probes, and cup-type probes, attached to various meters, such as those available from the Brookhaven Instruments Corporation of Holtsville, N.Y. (e.g., model BI-870) and the Scientifica Company of Princeton, N.J. (e.g. models 850 and 870). For consistency of comparison, preferably all measurements for a particular filter system are performed at substantially the same sample temperature, e.g., by use of a water bath. Generally, the measured dielectric constant of a substance will increase at lower temperatures and decrease at higher temperatures.
A mixture of solvent system and filter system, in accordance with one preferred embodiment, are combined with well-known cosmetically-acceptable additives, such as moisturizers, emollients, solvents, co-solvents, lubricants, thickeners, emulsifiers and/or other common cosmetic formulation additives for solubility of sunscreen active compounds, emulsification, thickening and to provide other skin enhancement, e.g., moisturizing properties. The compositions can be produced as oily lotions, gels, solid sticks, emulsions, aerosols, and all other forms of cosmetic compositions. The dielectric constants of various sunscreen additive materials are well known, see, Dielectric Constant Reference Guide of ASI Instruments, Inc., pages 1-64, (http://asiinstruments.com/dcl.html), hereby incorporated herein by reference.

[2] = Solvency testing of solvents for oxybenzone; type: physicochemical; details: solute oxybenzone dissolved in the named solvent
From the text: (§1) Examples of crystalline UV filters include oxybenzone, avobenzone, and octyl triazone (sold under the trade name UVINUL T-150 by BASF Corporation) and methylbenzilidene camphor.

[3] = Solvency testing of solvents for avobenzone; type: physicochemical; details: solute avobenzone dissolved in the named solvent
From the text: as §1

[4] = Solvency testing of solvents for octyl triazone; type: physicochemical; details: solute octyl triazone dissolved in the named solvent
From the text: as §1

[5] = marked literature value, cited from earlier work
[6] = Solvency for crystalline UV filters, comparison with traditional solvents; type: physicochemical; details: compared to traditional solvents used in sunscreen compositions
From the text: as §1

Compound | Dielectric Constant at 25° C. (ε) [1] | Solvency for Oxybenzone [2] | Solvency for Avobenzone [3] | Solvency for Octyl triazone [4] | further results
Diethylhexyl malate | 4.74 and 5.88 | 19% wt. % and 15% wt. % | 12.5% wt. % and 15% wt. % | 5% wt. % and <5% wt. % | Dielectric Constant at 25° C. (ε) ([1]; listed as diethylhexyl malate): 5.88
COc1ccc(C(=O)c2ccccc2)c(O)c1 [Benzophenone-3, benzophenone-3] |  |  |  |  | Dielectric Constant at 25° C. (ε), literature value ([5]; listed as benzophenone-3): 13^†; Dielectric Constant at 25° C. (ε), literature value [5]: 13
COc1ccc(C(=O)CC(=O)c2ccc(C(C)(C)C)cc2)cc1 [Avobenzone, 4-(1,1-dimethylethyl)-4′-methoxydibenzoylmethane, reference compound] |  |  |  |  | Dielectric Constant at 25° C. (ε), estimated value [1]: ~10 (estimated.); Dielectric Constant at 25° C. (ε), estimated value ([1]; listed as avobenzone): ~10*
CC(C)CCOC(=O)CC(O)C(=O)OCCC(C)C (centres unmarked) [Diisoamyl malate] | 7.42 |  |  |  | 
CCCCC(CC)COC(=O)c1ccc2cc(C(=O)OCC(CC)CCCC)ccc2c1 (centres unmarked) [Diethylhexyl 2,6-naphthalate] | 4.34 |  |  |  | 
O [Water] | 80 |  |  |  | 
CCCCC(CC)COC(=O)CCCCC(=O)OCC(CC)CCCC (centres unmarked) [Diethylhexyl adipate] | 4.21 | 20% wt. % | 10% wt. % | <5% wt. % | 
isododecyl alcohol dimer with isopherone diisocyanate (IPDI) [Isododecyl alcohol dimer with IPDI] |  |  |  |  | Dielectric Constant at 25° C. (ε), estimated value [1]: ~10 (estimated.); Dielectric Constant at 25° C. (ε), estimated value ([1]; listed as isododecyl alcohol dimer w/IPDI): ~10*
Isododecyl alcohol dimer with HDI |  |  |  |  | Dielectric Constant at 25° C. (ε), estimated value [1]: ~10 (estimated.); Dielectric Constant at 25° C. (ε), estimated value ([1]; listed as isododecyl alcohol dimer w/HDI): ~10*
CCCCCCCCOC(=O)CC(O)C(=O)OCCCCCCCC (centres unmarked) [Dioctyl malate] | 4.74 and 5.78 |  |  |  | 
CCCCCCC(CCCC)COC(=O)CC(O)C(=O)OCC(CCCC)CCCCCC (centres unmarked) [Dibutyloctyl malate, bis(2-butyloctyl)malate] | 4.65 |  |  |  | 
CCCCC(CC)COC(=O)C=Cc1ccc(OC)cc1 (centres unmarked) [Ethylhexyl methoxycinnamate, 2-ethylhexyl paramethoxycinnamate, reference compound] | 5.98 | 24% wt. % | 17% wt. % | 15% wt. % | 
CCCCCCCCCCCCCCCC(=O)OCC(CC)CCCC (centres unmarked) [Ethylhexyl palmitate] | 3.06 |  |  |  | 

The next lines start with results.

Dielectric Constant at 25° C. (ε) [1] | Solvency for Oxybenzone [2] | Solvency for Avobenzone [3] | Solvency for Octyl triazone [4] | Compound | further results
2.04 |  |  |  | CCCCCCCCCCCCCCCCCC(C)C [Isoeicosane] | 
3.05 |  |  |  | CCCCCCCCCCCCCCCCCC(=O)OCC(CC)CCCC (centres unmarked) [Ethylhexyl stearate] | 
3.04 |  |  |  | Octyldodecyl neopentanoate | 
3.20 |  |  |  | CCCCCCCCCCCCCCCC(=O)OC(C)C [Isopropyl palmitate] | 
6.20 | 18% wt. % | 16% wt. % | 5% wt. % | CCCCC(CC)COC(=O)c1ccccc1O (centres unmarked) [Ethylhexyl salicylate, 2-ethylhexyl salicylate, reference compound] | Dielectric Constant at 25° C. (ε) ([1]; listed as octyl salicylate): 6.2
3.88 |  |  |  | PPG-2 myristyl ether propionate | 
11.08 | 32% wt. % | 27% wt. % | 1% wt. % | CCCCC(CC)COC(=O)C(C#N)=C(c1ccccc1)c1ccccc1 (centres unmarked) [Octocrylene, 2-ethylhexyl-2-cyano-3,3 diphenylacrylate, reference compound] | 
12.43 | 38% wt. % | 37% wt. % | 37% wt. % | CCCCCCCCCC(=O)N(C)C [N,N-dimethyldecanamide] | ability to solvate crystalline UV filters (in words) [6]: far superior
3.24 | 20% wt. % | 15% wt. % | <5% wt. % | CCCCCCCCCCCCCC(=O)OC(C)C [Isopropyl myristate] | 
